Laboratory results reported in patent US20230183310A1, “Polypeptide Compounds and Use Thereof in the Prevention or Treatment of Diabetes or Diabetic Complications” (Shenzhen Turier Biotech Co., Ltd., priority 2020, published 2023).
Where no end group is shown, it is not given here. [ ]: non-standard residue; d: D form. Iva = CC[C@](C)(N)C(=O)O; Aib = CC(C)(N)C(=O)O

Experiments:
[1] = system: C57BL/6J mice; assay: Oral glucose tolerance (OGTT), repeated glucose loads followed to 24 h after one s.c. dose; type: in vivo; conditions: four OGTT curves (0-22 h); 100 μg/kg subcutaneously
Protocol: Eight-week-old male C57BL/6J mice (Model Animal Research Center, Nanjing University) were randomly grouped according to similar blood glucose (assessed by blood samples obtained from the tail tip), with six mice in each group. […] The initial blood samples (fasted blood glucose levels) were obtained after about 4 h. Subsequently, an oral dose of glucose (2 g/kg) was administered and the animals were placed back in their holding cages (t=0). […] The oral dose of glucose was then repeated at 8 h of administration, 12 h of administration and […], and blood glucose changes were detected and followed until 24 hours. The data were processed using the software GraphPadPrism to make a line graph of blood glucose changes, and the area under the curve was calculated to obtain an AUC graph, and the results are shown in FIG. 1.

[2] = system: FN protein (fibronectin); assay: Western blot of FN protein in high glucose-induced in vitro renal fibrosis cell model; type: cell-based, rat; conditions: 10 μM; 30 mmol/L glucose; 48 h; mesangial and renal epithelial cells
Text: Hyperglycemia and increased production of glycosylation end products will cause morphological changes such as proliferation and hypertrophy of glomerular mesangial cells, increase in extracellular matrix (ECM) and mesangial expansion, which will eventually lead to the loss of its physiological function. […] Therefore, this example used high glucose to induce MCS mesangial cells and NRK renal epithelial cells to construct an in vitro renal fibrosis cell model for screening medicaments useful for the treatment of diabetic nephropathy. The renal mesangial cell strain GMC and glomerular epithelial cells mTEC used in this example were both cells kept in the applicant's laboratory (both were extracted from rat renal primary cells) and cultured in low sugar medium containing 10% fetal bovine serum. The cells were starved with serum-free culture medium for 24 h when grew to 70% confluence. The cells were divided into the following 9 groups by adjusting the glucose concentration as follows: […]

[3] = system: db/db diabetic mice; assay: Treatment of 12-week-old db/db diabetic mice: blood glucose, OGTT, ITT, ALT/AST, diabetic nephropathy indices; type: in vivo
Protocol: Normal mice born in the same litter; DC group: db/db mice control group). Blood glucose and body weight were measured on alternate days after daily administration of the medicament, and water intake and food intake were measured once a week. OGTT was measured at week 4, insulin tolerance (ITT) was measured at week 5, metabolism of mice was examined using mouse metabolic cages at weeks 6-7, and various serological and pathological indices were taken at week 8.
Type 2-diabetes mice were characterized by obesity, insulin resistance, hyperglycemia, dyslipidemia and hepatic fat vacuole-like degeneration.
After 6 weeks of medical treatment, the mice was collected for urine using metabolic cages, and the protein content in the urine was detected using relevant kits. After 7 weeks of medical treatment, the material was taken and blood was used to detect serological indicators such as blood creatinine and urea nitrogen.

[4] = system: db/db diabetic mice; assay: Dose determination in 8-week-old db/db diabetic mice: blood glucose and body weight; type: in vivo
Protocol: The db/db mice diabetic model (purchased from Nanjing University-Nanjing Institute of Biomedical Research, about 8 weeks, and blood glucose and body weight were measured to ensure the smooth subsequent experiments) was obtained, and the model mice were randomly divided into 12 groups (including polypeptide compounds 3, 8, 13, 15, semaglutide and physiological saline groups), with 6 mice in each group and no difference in basal body weight and blood glucose. Each group was injected subcutaneously with compound 3 (80 and 120 μg/kg, 2 groups), compound 8 (80 and 120 μg/kg, 2 groups), compound 13 (80 and 120 μg/kg, 2 groups), compound 15 (80 and 120 μg/kg, 2 groups), semaglutide (80 and 120 μg/kg, 2 groups) and physiological saline (DN group: normal mice born in the same litter; DC group: db/db mice control group) every day or every other day.
Blood glucose and body weight of mice were measured after daily administration and 6 h fasting on alternate days.

For “His-Aib-Gln-Gly-Thr-Phe-Thr-Ser-Asp-Lys(Gly-Gly-Ser-Gly-Ser-Gly-γGlu-CO(CH2)18-COOH)-Ser-Lys-Tyr-Leu-Asp-Glu-Arg-Ala-Ala-Gln-Asp-Phe-Iva-Gln-Trp-Leu-Leu-Asp-Gly-Gly-Pro-Ser-Ser-Gly-Aib-Pro-Pro-Pro-Ser (H[Aib]QGTFTSDKSKYLDERAAQDF[Iva]QWLLDGGPSSG[Aib]PPPS; not fully specified (residue 10, C-terminus)) [Compound 15]”, the “long-acting hypoglycemic effects compared to semaglutide” value [1] was “superior and significant long-acting hypoglycemic effects”, the “FN protein expression (Western blot)” value [2] was “inhibited FN expression more significantly” and the “weekly blood glucose (hypoglycemic effect)” value ([3]; FIG. 4A, 120 μg/kg s.c. daily, blood glucose at normal levels at week 1) was “significant hypoglycemic effects”. The “improving oral glucose tolerance (OGTT)” value ([3]; FIG. 4B, week 4, 120 μg/kg s.c. daily) was “performed more excellent”, the “improving insulin resistance (ITT)” value ([3]; FIG. 4C, week 5, 120 μg/kg s.c. daily) was “performed more excellent” and the “ALT and AST in serum (hepatoprotective function)” value ([3]; FIG. 4D, 120 μg/kg s.c. daily) was “more excellent hepatoprotective functions”. The “H&E staining of kidneys: glomerular adhesion, ameliorative and therapeutic effects” value ([3]; FIG. 5B, after 8 weeks, compared to semaglutide, SAR425899 and MED C18-acid groups) was “more significant”, the “PAS staining of kidneys: ameliorative effects on glomerular mesangial region” value ([3]; FIG. 5C, after 8 weeks) was “more significant” and the “collagen content (Sirius red, FN and α-SMA staining of kidneys)” value ([3]; FIGS. 5D to 5F, after 8 weeks, compared to semaglutide, SAR425899 and MED C18-acid groups) was “improved more significantly”. The “body weight (weight-lowering effect)” value ([4]; FIG. 3A, daily s.c.) was “better weight-lowering effect”, the “weight-lowering effect relative to compounds 3 and 8” value ([4]; FIG. 3A, daily s.c.) was “superior to that of compounds 3 and 8” and the “blood glucose (glucose-lowering effect)” value ([4]; FIG. 3A, daily s.c., 80 μg/kg) was “significant glucose-lowering effect with long-lasting effect”. The “blood glucose (glucose-lowering effect)” value ([4]; FIG. 3A, daily s.c., 120 μg/kg, vs saline DC group) was “good glucose-lowering effect in 3-5 days”, the “effect relative to polypeptide compounds 3 and 8” value ([4]; FIG. 3B, every other day s.c.) was “better than that of polypeptide compounds 3 and 8” and the overall hypoglycemic effect ([4]; FIG. 3B, every other day s.c.) was “more excellent hypoglycemic effect”. For the same substance, the “blood glucose (hypoglycemic effect)” value ([4]; FIG. 3B, every other day s.c., 80 μg/kg) was “significant hypoglycemic effect on day 3, but the subsequent blood glucose level did not change much and tended to be stable”, the “blood glucose (hypoglycemic effect)” value ([4]; FIG. 3B, every other day s.c., 120 μg/kg) was “good hypoglycemic effect on days 3-5” and the “subsequent blood glucose course (long-lasting effect)” value ([4]; FIG. 3B, every other day s.c., 120 μg/kg, from day 3 / after days 3-5) was “kept good hypoglycemic effect”.
